Reference: patent publication US6750239B2, “Pyrazole-derived kinase inhibitors and uses thereof” (Vertex Pharmaceuticals Incorporated, priority 2001, dated 2004)
pKi: −log10 of the molar value. Like-named read-outs stand apart in the source and are kept apart here.

Target: activated ERK2 (Homo sapiens, UniProt P28482)
Experiment: ERK2 inhibition spectrophotometric coupled-enzyme assay
Format: biochemical
Experimental: Compounds are assayed for the inhibition of ERK2 by a spectrophotometric coupled-enzyme assay (Fox et al (1998) Protein Sci 7, 2249). In this assay, a fixed concentration of activated ERK2 (10 nM) is incubated with various concentrations of the compound in DMSO (2.5%) for 10 min. at 30° C. in 0.1 M HEPES buffer, pH 7.5, containing 10 mM MgCl2, 2.5 mM phosphoenolpyruvate, 200 μM NADH, 150 μg/mL pyruvate kinase, 50 μg/mL lactate dehydrogenase, and 200 μM erktide peptide. The reaction is initiated by the addition of 65 μM ATP. The rate of decrease of absorbance at 340 nm is monitored, which indicates the extent of uninhibited enzyme present in the assay. The IC50 is evaluated from the rate data as a function of inhibitor concentration.
The compound numbers correspond to the compound numbers in Tables 1-3.

[1] = activated ERK2 10 nM, 65 μM ATP, 30° C., pH 7.5, read-out: ERK2 Inhibitory Activity (Ki class)

Sequence of activated ERK2 (P28482 whole entry): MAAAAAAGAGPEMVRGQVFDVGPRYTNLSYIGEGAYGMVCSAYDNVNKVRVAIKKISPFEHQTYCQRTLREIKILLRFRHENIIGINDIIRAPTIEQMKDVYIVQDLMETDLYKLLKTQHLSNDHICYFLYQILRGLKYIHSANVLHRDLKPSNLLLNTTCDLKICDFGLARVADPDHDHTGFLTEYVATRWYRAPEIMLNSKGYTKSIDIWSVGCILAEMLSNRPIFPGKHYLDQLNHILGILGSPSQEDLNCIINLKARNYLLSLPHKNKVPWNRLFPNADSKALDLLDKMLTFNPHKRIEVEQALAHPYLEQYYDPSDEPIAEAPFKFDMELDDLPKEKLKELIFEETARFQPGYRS

Compound	pKi [1]	pKi
CCOC(=O)CC(C)NCc1ccc(-c2cn[nH]c2-c2c[nH]c(C(=O)N[C@H](CO)c3ccc(F)c(Cl)c3)c2)cc1Cl (some centres unmarked) [II-72]	> 6.00	–
CC(C)NCc1ccc(-c2cn[nH]c2-c2c[nH]c(C(=O)N[C@H](CO)c3ccc(F)c(Cl)c3)c2)cc1Cl [II-70]	> 6.00	–
O=C(N[C@H](CO)c1ccc(F)c(Cl)c1)c1cc(-c2[nH]ncc2-c2ccc(CN(CCCl)CCCl)c(Cl)c2)c[nH]1 [II-36]	–	> 6.00
NC(=O)CN(CC(N)=O)Cc1ccc(-c2cn[nH]c2-c2c[nH]c(C(=O)N[C@H](CO)c3ccc(F)c(Cl)c3)c2)cc1Cl [II-74]	> 6.00	–
O=C(N[C@H](CO)c1ccc(F)c(Cl)c1)c1cc(-c2[nH]ncc2-c2ccc(CNCCCl)c(Cl)c2)c[nH]1 [II-35]	–	> 6.00
CC(=O)NC(CC[S+](C)[O-])C(=O)NCc1ccc(-c2cn[nH]c2-c2c[nH]c(C(=O)NC(CO)c3ccc(F)c(Cl)c3)c2)cc1Cl (centres unmarked) [II-16]	> 6.00	–
CC(NCc1ccc(-c2cn[nH]c2-c2c[nH]c(C(=O)N[C@H](CO)c3ccc(F)c(Cl)c3)c2)cc1C(F)(F)F)C(=O)N(C)C (some centres unmarked) [II-60]	> 6.00	–
CS(=O)(=O)CC(=O)NCc1ccc(-c2cn[nH]c2-c2c[nH]c(C(=O)N[C@H](CO)c3ccccc3)c2)cc1Cl [II-1]	> 6.00	–
CC(C(=O)N(C)C)N(C)Cc1ccc(-c2cn[nH]c2-c2c[nH]c(C(=O)N[C@H](CO)c3ccc(F)c(Cl)c3)c2)cc1C(F)(F)F (some centres unmarked) [II-61]	> 6.00	–
O=C(CCO)NCc1ccc(-c2cn[nH]c2-c2c[nH]c(C(=O)N[C@H](CO)c3ccccc3)c2)cc1Cl [II-4]	> 6.00	–
CC(C)(C)OC(=O)N[C@H](CO)C(=O)NCc1ccc(-c2cn[nH]c2-c2c[nH]c(C(=O)NC(CO)c3ccc(F)c(Cl)c3)c2)cc1Cl (some centres unmarked) [II-17]	> 6.00	–
CCOC(=O)CNCc1ccc(-c2c[nH]nc2-c2c[nH]c(C(=O)N[C@H](CO)c3ccc(F)c(Cl)c3)c2)cc1Cl [II-29]	> 6.00	–
CC(=O)NC(CO)C(=O)NCc1ccc(-c2cn[nH]c2-c2c[nH]c(C(=O)N[C@H](CO)c3cccc(Cl)c3)c2)cc1Cl (some centres unmarked) [II-19]	> 6.00	–
CCCCNCc1ccc(-c2cn[nH]c2-c2c[nH]c(C(=O)N[C@H](CO)c3ccc(F)c(Cl)c3)c2)cc1Cl [II-22]	> 6.00	–
CCN(CC)CC(=O)NCc1ccc(-c2cn[nH]c2-c2c[nH]c(C(=O)N[C@H](CO)c3ccc(F)c(Cl)c3)c2)cc1Cl [II-38]	> 6.00	–
CC(C)(C)OC(=O)N[C@@H](CO)C(=O)NCc1ccc(-c2cn[nH]c2-c2c[nH]c(C(=O)NC(CO)c3ccc(F)c(Cl)c3)c2)cc1Cl (some centres unmarked) [II-14]	> 6.00	–
CCCCN(CCCC)Cc1ccc(-c2cn[nH]c2-c2c[nH]c(C(=O)N[C@H](CO)c3ccc(F)c(Cl)c3)c2)cc1Cl [II-23]	> 6.00	–
N#CCNCc1ccc(-c2cn[nH]c2-c2c[nH]c(C(=O)N[C@H](CO)c3ccc(F)c(Cl)c3)c2)cc1Cl [II-33]	> 6.00	–

Compound	pKi [1]	pKi
CC(NCc1ccc(-c2cn[nH]c2-c2c[nH]c(C(=O)N[C@H](CO)c3ccc(F)c(Cl)c3)c2)cc1Cl)C(=O)N(C)C (some centres unmarked) [II-66]	> 6.00	–
O=C(CCCO)NCc1ccc(-c2c[nH]nc2-c2c[nH]c(C(=O)NC(CO)c3ccc(F)c(Cl)c3)c2)cc1Cl (centres unmarked) [II-8, 4-(4-{3-Chloro-4-[(4-hydroxy-butyrylamino)-methyl]-phenyl}-1H-pyrazol-3-yl)-1H-pyrrole-2-carboxylic acid [1-(3-chloro-4-fluoro-phenyl)-2-hydroxy-ethyl]-amide]	> 6.00	–
CCOC(=O)C(C)NCc1ccc(-c2cn[nH]c2-c2c[nH]c(C(=O)N[C@H](CO)c3ccc(F)c(Cl)c3)c2)cc1C(F)(F)F (some centres unmarked) [II-62]	> 6.00	–
CCN(CC)CCNCc1ccc(-c2cn[nH]c2-c2c[nH]c(C(=O)N[C@H](CO)c3ccc(F)c(Cl)c3)c2)cc1Cl [II-82]	> 6.00	–
CC(C)N(C)Cc1ccc(-c2cn[nH]c2-c2c[nH]c(C(=O)N[C@H](CO)c3ccc(F)c(Cl)c3)c2)cc1Cl [II-54]	> 6.00	–
CCCNCc1ccc(-c2cn[nH]c2-c2c[nH]c(C(=O)N[C@H](CO)c3ccc(F)c(Cl)c3)c2)cc1Cl [II-27]	> 6.00	–
CCN(CC)C(=O)CNCc1ccc(-c2cn[nH]c2-c2c[nH]c(C(=O)N[C@H](CO)c3ccc(F)c(Cl)c3)c2)cc1Cl [II-80]	> 6.00	–
CC(=O)NC(CO)C(=O)NCc1ccc(-c2c[nH]nc2-c2c[nH]c(C(=O)N[C@H](CO)c3ccc(F)c(Cl)c3)c2)cc1Cl (stereo in doubt) [II-20, 4-(4-{4-[(2-Acetylamino-3-hydroxy-propionylamino)-methyl]-3-chloro-phenyl}-1H-pyrazol-3-yl)-1H-pyrrole-2-carboxylic acid [1-(3-chloro-4-fluoro-phenyl)-2-hydroxy-ethyl]-amide]	> 6.00	–
4-{4-[3-Chloro-4-(methanesulfonylamino-methyl)-phenyl]-1H-pyrazol-3-yl}-1H-pyrrole-2-carboxylic acid [1-(3-chloro-4-fluoro-phenyl)-2-hydroxy-ethyl]-amide [II-2]	> 6.00	–
CCNC(=O)CN(CC(=O)NCC)Cc1ccc(-c2cn[nH]c2-c2c[nH]c(C(=O)N[C@H](CO)c3ccc(F)c(Cl)c3)c2)cc1Cl [II-85]	> 6.00	–
CNC(=O)C(C)N(C)Cc1ccc(-c2cn[nH]c2-c2c[nH]c(C(=O)N[C@H](CO)c3ccc(F)c(Cl)c3)c2)cc1C(F)(F)F (some centres unmarked) [II-59]	> 6.00	–
CCN(CC)C(=O)CN(CC(=O)N(CC)CC)Cc1ccc(-c2cn[nH]c2-c2c[nH]c(C(=O)N[C@H](CO)c3ccc(F)c(Cl)c3)c2)cc1Cl [II-86]	> 6.00	–
CNC(=O)C(C)NCc1ccc(-c2cn[nH]c2-c2c[nH]c(C(=O)N[C@H](CO)c3ccc(F)c(Cl)c3)c2)cc1C(F)(F)F (some centres unmarked) [II-65]	> 6.00	–
CCCN(CCC)Cc1ccc(-c2cn[nH]c2-c2c[nH]c(C(=O)N[C@H](CO)c3ccc(F)c(Cl)c3)c2)cc1Cl [II-28]	> 6.00	–
CC(CC(=O)N(C)C)NCc1ccc(-c2cn[nH]c2-c2c[nH]c(C(=O)N[C@H](CO)c3ccc(F)c(Cl)c3)c2)cc1Cl (some centres unmarked) [II-52]	> 6.00	–
CCOC(=O)C(C)N(C)Cc1ccc(-c2cn[nH]c2-c2c[nH]c(C(=O)N[C@H](CO)c3ccc(F)c(Cl)c3)c2)cc1Cl (some centres unmarked) [II-63]	> 6.00	–
CC(C(=O)O)N(C)Cc1ccc(-c2cn[nH]c2-c2c[nH]c(C(=O)N[C@H](CO)c3ccc(F)c(Cl)c3)c2)cc1C(F)(F)F (some centres unmarked) [II-58]	> 6.00	–

More lines, main results first:

pKi [1]	Compound	pKi
> 6.00	O=C(O)CNCc1ccc(-c2cn[nH]c2-c2c[nH]c(C(=O)N[C@H](CO)c3ccc(F)c(Cl)c3)c2)cc1Cl [II-81]	–
> 6.00	CC(=O)N[C@@H](C)C(=O)NCc1ccc(-c2cn[nH]c2-c2c[nH]c(C(=O)NC(CO)c3ccc(F)c(Cl)c3)c2)cc1Cl (some centres unmarked) [II-10]	–
> 6.00	NC(=O)CNCc1ccc(-c2cn[nH]c2-c2c[nH]c(C(=O)N[C@H](CO)c3ccc(F)c(Cl)c3)c2)cc1Cl [II-76]	–
> 6.00	NCCNCc1ccc(-c2cn[nH]c2-c2c[nH]c(C(=O)N[C@H](CO)c3ccc(F)c(Cl)c3)c2)cc1Cl [II-68]	–
> 6.00	CN(C)CC(=O)NCc1ccc(-c2cn[nH]c2-c2c[nH]c(C(=O)NC(CO)c3ccc(F)c(Cl)c3)c2)cc1Cl (centres unmarked) [II-13]	–
> 6.00	C[C@H](N)C(=O)NCc1ccc(-c2cn[nH]c2-c2c[nH]c(C(=O)N[C@H](CO)c3ccc(F)c(Cl)c3)c2)cc1Cl [II-69]	–
> 6.00	N[C@@H](CO)C(=O)NCc1ccc(-c2cn[nH]c2-c2c[nH]c(C(=O)N[C@H](CO)c3ccc(F)c(Cl)c3)c2)cc1Cl [II-75]	–
> 6.00	CCNC(=O)CNCc1ccc(-c2cn[nH]c2-c2c[nH]c(C(=O)N[C@H](CO)c3ccc(F)c(Cl)c3)c2)cc1Cl [II-71]	–
> 6.00	CN[C@@H](CO)C(=O)NCc1ccc(-c2cn[nH]c2-c2c[nH]c(C(=O)N[C@H](CO)c3ccc(F)c(Cl)c3)c2)cc1Cl [II-67]	–
> 6.00	N[C@@H](CO)C(=O)NCc1ccc(-c2cn[nH]c2-c2c[nH]c(C(=O)NC(CO)c3ccc(F)c(Cl)c3)c2)cc1Cl (some centres unmarked) [II-15]	–
> 6.00	CC(=O)N[C@H](C)C(=O)NCc1ccc(-c2cn[nH]c2-c2c[nH]c(C(=O)NC(CO)c3ccc(F)c(Cl)c3)c2)cc1Cl (some centres unmarked) [II-11]	–
> 6.00	CCOC(=O)NCc1ccc(-c2cn[nH]c2-c2c[nH]c(C(=O)N[C@H](CO)c3ccc(F)c(Cl)c3)c2)cc1Cl [II-78]	–
> 6.00	CC(=O)NC(CCO)C(=O)NCc1ccc(-c2cn[nH]c2-c2c[nH]c(C(=O)NC(CO)c3ccc(F)c(Cl)c3)c2)cc1Cl (centres unmarked) [II-5]	–
> 6.00	O=C(N[C@H](CO)c1ccc(F)c(Cl)c1)c1cc(-c2[nH]ncc2-c2ccc(CNCCO)c(Cl)c2)c[nH]1 [II-30]	–
> 6.00	CCC(=O)CNCc1ccc(-c2cn[nH]c2-c2c[nH]c(C(=O)N[C@H](CO)c3ccc(F)c(Cl)c3)c2)cc1Cl [II-53]	–
> 6.00	CC(O)CNCc1ccc(-c2cn[nH]c2-c2c[nH]c(C(=O)N[C@H](CO)c3ccc(F)c(Cl)c3)c2)cc1Cl (some centres unmarked) [II-31]	–
> 6.00	CC(=O)N[C@@H](CS)C(=O)NCc1ccc(-c2cn[nH]c2-c2c[nH]c(C(=O)NC(CO)c3ccc(F)c(Cl)c3)c2)cc1Cl (some centres unmarked) [II-12]	–
> 6.00	N[C@H](CO)C(=O)NCc1ccc(-c2cn[nH]c2-c2c[nH]c(C(=O)N[C@H](CO)c3ccc(F)c(Cl)c3)c2)cc1Cl [II-56]	–
> 6.00	C[C@@H](O)[C@H](N)C(=O)NCc1ccc(-c2cn[nH]c2-c2c[nH]c(C(=O)N[C@H](CO)c3ccc(F)c(Cl)c3)c2)cc1Cl [II-77]	–
> 6.00	C[S+]([O-])CC(=O)NCc1ccc(-c2cn[nH]c2-c2c[nH]c(C(=O)NC(CO)c3ccc(F)c(Cl)c3)c2)cc1Cl (centres unmarked) [II-6]	–
> 6.00	CCOC(=O)C(C)NCc1ccc(-c2cn[nH]c2-c2c[nH]c(C(=O)N[C@H](CO)c3ccc(F)c(Cl)c3)c2)cc1Cl (some centres unmarked) [II-55]	–
